# From patent US9708628B2, “Cationic lipid having improved intracellular kinetics” (NOF CORPORATION, priority 2011, dated 2017)
# Tests used:
# [1] = system: HT1080 cells; experiment: Evaluation of endosome amount (Lysotracker Green); type: cell-based; conditions: 6 hr after transfection
# Method: (§1) MENDs having a composition of B-2-4 (Example 4):DOPE:Chol=3:3:4, B-2 (Example 1):SOPE:Chol=5:3:2 were prepared by the method described in [Experimental Example 1] (2). For the preparation, PEG2000-DMG was used as PEG lipid, and MEND solutions corresponding to 0.55 mM of the lipid concentration were prepared.
# (§2) HT1080 cells were plated on a glass bottom dish at 5×10^4 cells/2 mL/dish 24 hr before. MEND was diluted with DMEM (FBS 10%+) to achieve pDNA 1.6 μg/2 mL and transfected into the cells. The cells without transfection of MEND were used as a control. After 5.5 hr, Lysotracker Green (Life technologies) was added at 2 μL/dish and Hoechst 33342 (Dojindo) was further added at 2 μL/dish 30 min later. 6 hr after the transfection, the cells were washed twice with heparin (20 units/mL, 2 mL), Krebs buffer (1 mL) was added, and the cells were observed by a confocal laser scan microscope.
# Endosome/lysosome and nucleus were shown in pseudo colors of green and blue, respectively. The relative endosome amount was calculated according to the following formula.
# [2] = system: HT1080 cells; experiment: Endosomal escape efficiency (rhodamine-pDNA, Lysotracker Green, 6 hr); type: cell-based; conditions: 6 hr after transfection
# Method: For MEND preparation, the Rhodamine-labeled pDNA prepared by the method of [Experimental Example 1] (4) was used. When MEND encapsulating rhodamine-labeled pDNA was prepared, 50% of the pDNA solution described in [Experimental Example 1] (1) was replaced by rhodamine-labeled pDNA.
# as §1
# as §2, with “into” for “into the”, “cells.” for “cells. The cells without transfection of MEND were used as a control.”, “μL/dish.” for “μL/dish and Hoechst 33342 (Dojindo) was further added at 2 μL/dish 30 min later.”
# Rhodamine-labeled pDNA, endosome/lysosome and nucleus were shown in pseudo colors of red, green and blue, respectively. The endosomal escape efficiency was calculated according to the following formula.
# [3] = system: IL-12p70; experiment: Cytokine production by MEND administration, IL-12p70 (ELISA); type: in vivo, ICR mice; conditions: pCpGfree-Luc(0), 40 μg DNA
# Method: MENDs used in [Experimental Example 12] were each administered to 5-week-old male ICR mice from the tail vein in an amount corresponding to 40 μg DNA. 1, 3, 6, 24 hr later, the blood was collected from the heart, and TNF-α, IFN-γ, IL-12p70 were measured using Quantikine ELISA kit (R&D Systems).
# [4] = system: liver; experiment: Intrahepatic behavior of MEND (intravital confocal microscopy); type: in vivo, ICR mice; conditions: Rhodamine-DOPE labeled MEND, 40 μg DNA/mouse, about 10 min filming
# Method: Rhodamine-DOPE was added to R8/GALA-MEND in an amount of 0.1% of the total lipid concentration, and to B-2 MEND in an amount of 1% of the total lipid concentration. 50 mg/mL Sodium pentobarbital (Nacalai Tesque) was diluted 5-fold with saline and intraperitoneally administered to ICR mice (5-week-old male) for anesthesia. Griffonia simplicifolia Lectin I-B4 Isolectin, FITC Conjugate (VECTOR Laboratories, about 80 μL) was administered to the mice under anesthesia from the tail vein to stain the vascular endothelial cells. […] A winged intravenous indwelling needle connected with an extension tube filled with the MEND solution was indwelled in the tail vein of the mouse. To prevent dislocation of the observation site due to the heart beat of the mouse, a device for fixing the liver by adsorption (Shimizu K et al., J Biosci Bioeng. 112(5): 508-10) was used, and the mouse was observed using a confocal microscope (Nikon A1) with a 60-fold water immersion lens.
# [5] = system: liver, lung and spleen; experiment: Gene expression activity in liver, lung and spleen after tail vein administration of MEND; type: in vivo, ICR mice; conditions: 40 μg DNA
# Method: A solution of pDNA encoding luciferase gene and protamine (maker) solution were diluted with 10 mM HEPES buffer to 0.3 mg/mL and 0.24 mg/mL, respectively. […] A solution (750 μL) of the electrostatic complex composed of gene and protamine was mixed with the lipid solution (750 μL), and the mixture was quickly stirred, diluted with 10 mM HEPES solution (pH 5.3) to 15 mL, and subjected to ultrafiltration using Amicon® Ultra-15 100K device at 3,000 rpm, 15 min, 25° C. The solution after ultrafiltration was diluted with 100 mM HEPES buffer (pH 7.4), and subjected to the ultrafiltration again. The solution was diluted with 10 mM HEPES buffer to 750 μL. […] The mice were euthanized by a cervical spine […] method 6, 24, 48, 72 hr later, and the liver, lung and spleen were isolated and frozen with liquid nitrogen. They were thawed in a Lysis buffer to prepare homogenates. They were centrifuged at 13,000 rpm, 10 min, 4° C., and the supernatant was collected and used as a measurement sample. The sample solution (20 μL) was mixed with a luciferase substrate (50 μL), and the luciferase activity was measured using Luminescenser-PSN (AB2200 ATTO). In addition, the concentration of the protein in the sample was quantified using a BCA protein assay kit, and the gene expression activity was measured as RLU/mg protein.
# [6] = system: liver; experiment: Time course of gene expression activity in the liver (IVIS imaging, total luminescence in abdomen); type: in vivo, ICR mice; conditions: for luminescence / gene expression time course: 40 μg DNA, tail vein
# Source text: As a DNA to be mounted on MEND composed of B-2 in this case, […]-Luc(0) described in WO 2011/132713 was used as pDNA completely excluding CpG sequence known to induce immune response and, as a general pDNA having a CpG sequence, a plasmid DNA (pcDNA3.1-Luc(+); CpG sequence total 425) containing a CpG sequence in the back bone of the plasmid DNA and having a CpG sequence even between the initiation codon and the stop codon of the luciferase sequence (marker gene) was used. In gene transfer using cationic MEND and in vivo […]-Luc(0) alone was used. 6, 24, 72 hr later, luciferin (in vivo grade, Promega) corresponding to 3 mg was intraperitoneally administered to the mice, and imaging was performed using IVIS LuminaII (Caliper Life Sciences). As for MEND composed of B-2, imaging was performed about twice a week even after 72 hr. The total luminescence amount in the mouse abdomen was calculated as photon/sec from the obtained images, and used as an index of gene expression activity in the liver.
SMILES,relative endosome amount [1],endosomal escape efficiency [2],IL-12p70 blood concentration [3],behavior in liver blood vessels [4],gene expression activity in the lung and spleen (organ selectivity) [5],time of peak/maximum gene expression activity ([5]; liver) [h],time at which luminescence completely disappeared ([6]; pCpGfree-Luc(0)) [days],luminescence / gene expression time course ([6]; pCpGfree-Luc(0)),luminescence / gene expression time course ([6]; pcDNA3.1-Luc(+))
CC1=C(/C=C/C(C)=C/C=C/C(C)=C/C(=O)OCCCN(C)CCSSCCN(C)CCCOC(=O)/C=C(C)/C=C/C=C(C)/C=C/C2=C(C)CCCC2(C)C)C(C)(C)CCC1 [Example B-2-4],significant decrease in endosome than the untreated group and the B-2 treatment group,significantly higher endosomal escape efficiency than B-2,,,,,,,
CCCCCCCCCCCCCC(=O)OCCCN(C)CCSSCCN(C)CCCOC(=O)CCCCCCCCCCCCC [Example B-2],,,maintained the normal value at any time point,coagulation was not formed and the MEND uniformly flows through the blood vessels,background-level,48,18,"luminescence amount increased from 6 hr to 24 hr later, after which the luminescence amount was retained for the subsequent one week","weak luminescence 6 hr later, after which the gene expression decreased"
